According to PMC10780823, “Innovative Approach to Enhance Bioavailability of Birch Bark Extracts: Novel Method of Oleogel Development Contrasted with Other Dispersed Systems” (Plants, 2024):
Entries after “also recorded” stand apart in the source; their conditions may differ. Values belong to the compound of their own block, whether it stands above or below them.

How the values were obtained:
[1] = Content of BBE compounds in rat tissues after repeated peroral oleogel administration; settings: for Content in heart, liver, kidney, brain tissues: oleogel half dose daily 7 days, 24 h after last administration, level of quantification 50 ng/g
[2] = male, Wistar, rat, in vivo
[3] = oral in olive oil, 200 mg/kg, mice; cited from earlier work
[4] = Betulin, lupeol and betulinic acid in rat blood plasma after peroral administration of BBE dispersed systems (LC/MS/MS)
[5] = Oxidative stability (Oxipres, high-pressure oxygen bomb method); assay type: physicochemical; settings: antioxidants 0.33%
Experimental: Due to their high oil content, oleogels are characterized by instability in an oxygen environment, so at the beginning of the study, an oxidative stability test of the oleogel was performed, which was compared with a pure sunflower oil sample and an oil sample containing TBHQ (tertiary butylhydroquinone).
To determine the oxidative stability, the oleogel was compared with a sunflower oil alone (blank sample) and a sample of sunflower oil with the addition of TBHQ (tertiary butylhydroquinone), which is widely used as an effective food antioxidant. TBHQ was added to the oil at a concentration equivalent to the concentration of polyphenols in the oleogel—0.33% (determined in previous studies).
An Oxipres ML 3,047,312 machine (Mikrolab Aarhus, Aarhus, Denmark) was used to determine oxidative stability. This equipment is a modification of the high-pressure oxygen bomb method (by standard ASTM D942), the principle of which is to oxidize substrates with oxygen. Enough sample was weighed into glass containers to contain 5 g of substrate. […] The protection factor (PF) is calculated according to the formula PF = […], where IPx is the induction period for the sample with antioxidant additives, hours; IPk is the induction period for the sample without antioxidant additives or the “blank sample”, hours. Using that formula, the oxidative stability was determined and compared among samples.

[6] = Pozharitskaya study: betulin in blood plasma after endotracheal administration; assay type: in vivo, rat; settings: cross-study comparison
[7] = set-up: method as in PMID 27155877; settings: endotracheal route; nanoparticles 25.2 mg/kg; cited from earlier work
[8] = oleogel half dose daily for 7 days

Compound: C=C(C)[C@@H]1CC[C@]2(CO)CC[C@]3(C)[C@H](CC[C@@H]4[C@@]5(C)CC[C@H](O)C(C)(C)[C@@H]5CC[C@]43C)[C@@H]12 [betulin]
Content in heart, liver, kidney, brain tissues [1]: not detected; also recorded: not found

Compound: C=C(C)[C@@H]1CC[C@]2(C)CC[C@]3(C)[C@H](CC[C@@H]4[C@@]5(C)CC[C@H](O)C(C)(C)[C@@H]5CC[C@]43C)[C@@H]12 [lupeol]
Lupeol content in heart [2]: about 250 ng/g tissue | Lupeol concentration in blood plasma [3]: 6 ng/µL | Lupeol content in brain [1, 8]: not found | Lupeol content in kidneys [1, 8]: about 250 ng/g tissue | Lupeol content in liver [1, 8]: about 21 ng/g tissue | Lupeol bioavailability from the oleogel, times better than betulin bioavailability ([4]; considering the lower dose of lupeol): 20 times | Lupeol exposure, times higher than betulin exposure ([4]; peroral BBE systems): about 3 times

Induction period ([5]; oxygen 8–8.5 bar, 120 °C): 3.5 h | Protection factor ([5]; vs blank sunflower oil): 2.7
Compound: CC(C)(C)c1cc(O)ccc1O [TBHQ in oil, tertiary butylhydroquinone]

Content in heart, liver, kidney, brain tissues [1]: not detected; also recorded: not found
Compound: C=C(C)[C@@H]1CC[C@]2(C(=O)O)CC[C@]3(C)[C@H](CC[C@@H]4[C@@]5(C)CC[C@H](O)C(C)(C)[C@@H]5CC[C@]43C)[C@@H]12 [betulinic acid]

Compound: C=C(C)[C@@H]1CC[C@]2(CO)CC[C@]3(C)[C@H](CC[C@@H]4[C@@]5(C)CC[C@H](O)C(C)(C)[C@@H]5CC[C@]43C)[C@@H]12 [betulin powder]
Plasma level, times higher than aqueous suspension of BBE powder in this study [6]: ~1000 times | Betulin in blood plasma [7]: 6.9 µg/mL
